The values below come from patent publication US20230225991A1, “COMPOUNDS FOR USE IN THE TREATMENT OF ACUTE INTERMITTENT PORPHYRIA” (VESTLANDETS INNOVASJONSSELSKAP AS, priority 2019, published 2023).

SMILES strings stand for the structures. Converted amounts (≈) assume the structure as drawn.

The first series has as its target T1, HMBS (Homo sapiens, UniProt P08397).
T1 sequence (P08397 1-361): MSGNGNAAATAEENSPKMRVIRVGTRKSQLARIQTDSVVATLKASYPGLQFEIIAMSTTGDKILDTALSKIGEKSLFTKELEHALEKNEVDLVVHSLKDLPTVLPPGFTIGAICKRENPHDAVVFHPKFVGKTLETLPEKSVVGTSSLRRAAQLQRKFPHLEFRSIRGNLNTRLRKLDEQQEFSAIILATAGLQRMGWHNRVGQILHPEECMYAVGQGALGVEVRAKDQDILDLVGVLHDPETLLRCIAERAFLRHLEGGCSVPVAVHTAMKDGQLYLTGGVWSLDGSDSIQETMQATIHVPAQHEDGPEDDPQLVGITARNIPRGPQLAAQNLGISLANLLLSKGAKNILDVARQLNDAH
The series can be described thus: Octet RED KD determination (Example 21). The conditions noted are these: steady state analysis, 6.25 to 500 μM, PBS-P+ 5% DMSO. Details: Full-length HMBS was cloned into pET-28a(+)-TEV vector and transformed into BL21 (DE3) cells for expression; 6xHis (N, cleaved yes); TEV protease cleavage site (N, cleaved yes); made in house; host or cells: E. coli BL21 (DE3). It counts as binding. As for the experimental part:
Octet RED (Forte Bio) was used for screening binding and determining the KD values of various compounds. OctetRED is based on the technique called Bio-layer interferometry (BLI). It measures changes in an interference pattern generated from visible light reflected from an optical layer and a biolayer containing proteins of interest. In the assay the target protein is biotinylated and coupled as a layer on the optic probe (Super Strepavidin). The concentration series was from 6.25 to 500 μM.
For the analysis method of KD determination, steady state analysis was used, where the response from steady state of the association phase was used for determining the binding curve for the analyte. Buffer for the analysis was selected to PBS-P+5% DMSO.
In general terms: Biolayer interferometry detects binding as a change in optical thickness at a sensor tip.
Take `O=C(c1ccncc1)c1ccc(Cl)c([N+](=O)[O-])c1`: the KD entry is reported as “mM range (no saturation with 500 μM)”. On the same count and under the same terms, next, `O=C(c1ccc(Br)cc1)c1ccc(Cl)c([N+](=O)[O-])c1`: “mM range (no saturation with 500 μM)”.

With `Cc1ccc(C(=O)c2ccc(Cl)cc2)cc1[N+](=O)[O-]`, binding was characterised by a dissociation constant (Kd) of 7 µM. Same read-out and setting: next, `O=Cc1cc(Cc2ccccc2Cl)cc([N+](=O)[O-])c1O` [drawing 43]: 90 µM. The same measure, in the same setting: the result for `O=Cc1cc(Cc2ccccc2Cl)ccc1O` reads 190 µM. Still for that read-out and setting: the result for `O=C(c1ccc(OCCN2CCCC2)cc1)c1ccc(N2CCCC2)c([N+](=O)[O-])c1` reads greater than 200 µM. Consider `Cc1cccc(C)c1C(=O)c1ccc(Cl)c([N+](=O)[O-])c1`, for which the KD result is recorded as “mM range (no saturation with 500 μM)”. On the same count and under the same terms, the result for `CN(C(=O)c1ccc(Cl)c([N+](=O)[O-])c1)c1ccccc1` reads “mM range (no saturation with 500 μM)”. As for `COc1ccc(C(O)c2ccc(Cl)c([N+](=O)[O-])c2)cc1` (stereo not drawn), the Kd (usually the constant that tells how readily two partners part at equilibrium) is greater than 200 µM. For `O=C(c1ccccc1)c1ccc(Cl)c([N+](=O)[O-])c1` [drawing 44], the KD entry is “mM range (no”. Same read-out and setting: next, `O=C(c1ccc(Cl)c([N+](=O)[O-])c1)c1ccc(Cl)c([N+](=O)[O-])c1`: “mM range (no saturation with 500 μM)”. `O=C(c1ccc(Cl)c(Cl)c1)c1ccc(Cl)c([N+](=O)[O-])c1`: the Kd is 140 µM. The same measure, in the same setting: next, `COc1ccc(C(=O)c2ccc(Cl)c([N+](=O)[O-])c2)cc1`: 300 µM; `O=C(c1ccc(Cl)cc1)c1cc([N+](=O)[O-])ccc1Cl`: 110 µM.

Tested on in another series: not listed separately
As to the kind of experiment: Solubility in DMSO and in buffer (Table 5). It counts as physicochemical. The settings on record: 100% DMSO.
As to `O=Cc1cc(Cc2ccccc2Cl)cc(C(F)(F)F)c1O`, the “Soluble in DMSO (100%)” value is reported as “Yes”. In the case of `O=C(c1ccc(OC(F)(F)F)cc1)c1ccc(Cl)c(C(F)(F)F)c1`, the “Soluble in DMSO (100%)” value is reported as “Yes”.

With `O=Cc1cc(Cc2ccccc2Cl)cc([N+](=O)[O-])c1O` [drawing 59], the “Soluble in DMSO (100%)” value is “Yes”. The same measure, in the same setting: the result for `OCc1cc(Cc2ccccc2Cl)cc(C(F)(F)F)c1O` [drawing 62] reads “Yes”.

The same series, now with this note: aqueous buffer; buffer; numeric values.
In the case of `O=C(c1ccc(OC(F)(F)F)cc1)c1ccc(Cl)c(C(F)(F)F)c1`, the solubility (commonly the dissolved amount per volume that the medium holds) was 52 µM (≈ 19.2 µg/mL). Same read-out and setting: next, `O=Cc1cc(Cc2ccccc2Cl)cc([N+](=O)[O-])c1O` [drawing 59]: 384 µM (≈ 112 µg/mL).

Staying with this series, now noted: buffer; stated in words.
In the case of `O=Cc1cc(Cc2ccccc2Cl)cc(C(F)(F)F)c1O`, the Solubility in buffer entry is on record as “Yes”. Same read-out and setting: the result for `OCc1cc(Cc2ccccc2Cl)cc(C(F)(F)F)c1O` [drawing 62] reads “Yes”.

In the next series the target is T2, WT-HMBS (Homo sapiens, UniProt P08397).
T2 construct: Full-length HMBS was cloned into pET-28a(+)-TEV vector and transformed into BL21 (DE3) cells for expression; 6xHis (N, cleaved yes); TEV protease cleavage site (N, cleaved yes); made in house; host or cells: E. coli BL21 (DE3)
T2 sequence (P08397 1-361): T1 sequence (P08397 1-361)
As to the kind of experiment: DSF thermal upshift (ΔTm) of HMBS. It counts as binding. The settings on record: Table 3, average compound concentration 122 μM (2% DMSO). Here is the method:
Compounds BG-2, BG-3 and BG-4 were tested on recombinant WT-HMBS using DSF and tryptic proteolysis.
Regarding `O=Cc1cc(Cc2ccccc2)cc([N+](=O)[O-])c1O` [BG-3], the ΔTm (as a rule, the shift of the melting midpoint relative to a reference) at 122 µM was 6.6 °C. `O=[N+]([O-])c1cc(Cc2ccccc2Cl)cc(CO)c1O` [BG-4]: the ΔTm at 122 µM came out at 4.7 °C.

In a further series the target is T1, HMBS. As to the kind of experiment: Activity measurements in vitro (Example 23, TECAN plate reader). It counts as biochemical. The conditions noted are these: 5 and 50 μM compound in 2.5% DMSO, 30 min at 37° C., compared to HMBS with DMSO only. As for the experimental part: Activity measurements were carried out using TECAN plate reader for absorbance measurements. Activity measurements were based on measuring the light absorbance at 405 nm for determining the concentration of formed product, preuroporphyrinogen. Standard curve for measurements was measured using absorbance of known concentrations for Uroporphyrin I dihydrochloride, the cyclic derivative of preuroporphyrinogen. Two concentrations of the compound of Example 14, i.e. 5 and 50 μM in 2.5% DMSO were used. Protein was incubated 30 min in 37° C. with the compound, and mixed with MIX-buffer (50 mM HEPES pH 8, 2.5% DMSO) on Corning 96 well plate (clear bottom, half area, black). The solutions were pre-warmed to 37° C. prior to reaction. Reaction was started by adding PBG and after 5 min the reaction was stopped by adding the STOP solution (5 M HCl and 0.1% p-Benzoquinone mixed 1:1). Wells were covered and protected from light during the whole reaction.
On to `OCc1cc(Cc2ccccc2Cl)cc(C(F)(F)F)c1O` [Example 14, 4-(2-chlorobenzyl)-2-(hydroxymethyl)-6-(trifluoromethyl) phenol], for which the “HMBS activity in presence of compound” value is “activation of HMBS”.

The next series deals with T2, WT-HMBS. As to the kind of experiment: Limited proteolysis by trypsin. The conditions noted are these: Table 3; 84 μM compound, 2% DMSO. It counts as biochemical. As for the experimental part:
Limited proteolysis by trypsin was performed at 37° C. in 20 mM HEPES, 150 mM NaCl, 2% DMSO, pH 8.2, with 0.15 μg/μl HMBS in the absence (DMSO-control) or presence of 84 μM compound and 2% DMSO. The proteolysis was initiated by adding 1 μg/ml TPCK-treated trypsin (Sigma-Aldrich). After 30 min, aliquots were removed and transferred to Laemmli loading buffer containing 2 μg/ml soybean trypsin inhibitor. Samples resolved by electrophoresis with 10% Mini-Protean® TGX™ gels (Bio-Rad Laboratories, Inc.) were analyzed using the Image Lab™ software (Bio-Rad Laboratories, Inc.). The unpaired t-test (two tailed) was performed using GraphPad Prism.
Limited tryptic proteolysis was also applied to compound BG-1. Proteolysis of WT-HMBS provided three major bands with relative content 34.5±0.3%, 14.7±0.8% and 50.9±0.5%, corresponding to remaining full-length HMBS (˜42.5 kDa), and two fragments of ˜41.0 kDa and ˜31.5 kDa, respectively (FIG. 1). […] The effect of this compound at 84 μM on the steady-state enzyme kinetics of HMBS was then calculated (Table 2).
Take `O=Cc1cc(Cc2ccccc2)cc([N+](=O)[O-])c1O` [BG-3]: the “Protection against tryptic proteolysis” value was “+/− (+/−, ±2%)”. With `O=[N+]([O-])c1cc(Cc2ccccc2Cl)cc(CO)c1O` [BG-4], the “Protection against tryptic proteolysis” value was “+/− (+/−, ±2%)”.

A further series concerns the target T2, WT-HMBS. The series can be described thus: Octet RED96 KD determination (Example 22). It counts as binding. The settings on record: Octet RED96, 3.1 to 150 μM, PBS-P+ 5% DMSO. As for the experimental part:
Octet RED96 (Forte Bio) was used for screening binding and determining the KD values for certain compounds. In the assay the target protein (WT-HMBS) was biotinylated and coupled as a layer on the optic probe. The concentration series for the tested compounds were from 3.1 to 150 μM, dissolved in PBS-P+5% DMSO.
For the analysis method of KD determination, steady state analysis was used in which the response from steady-state of the association phase was used for determining the binding curve for the analyte. KD values were calculated using sigmoidal fitting. The buffer for the analysis was selected to PBS-P+5% DMSO.
Regarding `O=Cc1cc(Cc2ccccc2Cl)cc(C(F)(F)F)c1O`, the Binding entry is on record as “Yes”. Same read-out and setting: next, `O=Cc1cc(Cc2ccccc2Cl)cc([N+](=O)[O-])c1O` [drawing 59]: “Yes”; `OCc1cc(Cc2ccccc2Cl)cc(C(F)(F)F)c1O` [drawing 62]: “Yes”.

Still in this series, the particulars now being: Octet RED96, steady state, sigmoidal fitting, 3.1 to 150 μM, PBS-P+ 5% DMSO.
In the case of `O=Cc1cc(Cc2ccccc2Cl)cc(C(F)(F)F)c1O`, the affinity, expressed as Kd, was 9.3 µM. The same measure, in the same setting: the result for `O=Cc1cc(Cc2ccccc2Cl)cc([N+](=O)[O-])c1O` [drawing 59] reads 83 µM. The same measure, in the same setting: the result for `OCc1cc(Cc2ccccc2Cl)cc(C(F)(F)F)c1O` [drawing 62] reads 90 µM.
